Assay results as given in PubChem BioAssay (NCI).
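Each compound was tested at five concentrations against cells in 96-well plates for 48 hours. GI50: concentration for 50% inhibition of growth. TGI marks complete inhibition of growth.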

Columns and labels:
Assay in all cases: growth of human tumour cells (NCI), 48 h
CAKI-1 renal = system: CAKI-1 renal
SF-268 CNS = system: SF-268 CNS
786-0 renal = system: 786-0 renal
SNB-75 CNS = system: SNB-75 CNS
NCI-H522 lung = system: NCI-H522 lung
MCF7 breast = system: MCF7 breast
NCI/ADR-RES ovarian = system: NCI/ADR-RES ovarian
SF-539 CNS = system: SF-539 CNS
OVCAR-4 ovarian = system: OVCAR-4 ovarian
COLO 205 colon = system: COLO 205 colon
T-47D breast = system: T-47D breast

Structure (SMILES)	TGI (CAKI-1 renal) [µM]	TGI (SF-268 CNS) [µM]	TGI (786-0 renal) [µM]	TGI (SNB-75 CNS) [µM]	TGI (NCI-H522 lung) [µM]	TGI (MCF7 breast) [µM]	TGI (NCI/ADR-RES ovarian) [µM]	TGI (SF-539 CNS) [µM]	TGI (OVCAR-4 ovarian) [µM]	TGI (COLO 205 colon) [µM]	TGI (T-47D breast) [µM]	GI50 (SF-539 CNS) [µM]
N#CCCC1(CCC#N)S(=O)(=O)OCCOS1(=O)=O	> 100	> 100	> 100	> 100	> 100	> 100	> 100	31.1	> 100	> 100	> 100	
CCC1(c2ccc(OC)c(OC)c2)CCN(S(=O)(=O)c2ccc(C)cc2)C1 (centres undefined)	> 100	> 100	> 100	> 100	> 100	> 100	> 100	> 100	> 100	> 100	> 100	
COc1ccc2nc3c4c(nccc4c2c1)-c1ncccc1C3=O	1.83	3.96	0.208	0.378		0.179	7.62	0.56	2.01	1.28	4.81	
COC(=O)C(=O)C(C(=O)OC)C(=O)C(=O)Nc1cc(Cl)c(C)cc1S(=O)(=O)O (centres undefined)	> 100	> 100	> 100	> 100	> 100			> 100	> 100	> 100		
Cc1cc(C)c(NS(=O)c2ccc(Cl)cc2)c(C)c1 (centres undefined)		> 100	> 100			> 100	> 100	> 100		> 100	> 100	
C1=NN2C(c3ccccc3)=NOC2C2C(c3ccccc3)=NOC12 (centres undefined)	> 100	> 100	> 100	> 100	> 100	> 100	> 100	> 100		> 100		
Cc1c2c(n3c(nc4ccccc43)c1C#N)N(c1ccc(F)cc1)CC2	> 100	> 100	> 100	> 100	> 100	> 100	> 100	> 100	> 100	> 100		
Cc1ccc(S(=O)(=O)c2ccc(C)cc2[N+](=O)[O-])c([N+](=O)[O-])c1		> 100	> 100	> 100	> 100			> 100	> 100	> 100		
Cc1c(-c2coc(-c3ccc([N+](=O)[O-])cc3)n2)c(=O)n(-c2ccccc2)n1C		> 100	> 100	> 100	> 100			> 100	> 100	> 100		
COP12(OC)NC(=O)OC1(C(F)(F)F)c1ccccc1O2 (centres undefined)		> 100	> 100	> 100	> 100			> 100	> 100			
CC(C)CCNC(=O)c1ccc(CNC(=O)/C=C/c2ccc3ccccc3c2)cc1	> 100	> 100	> 100	> 100		> 100	> 100		> 100	> 100	> 100	
CCOC(=O)c1c2ccccc2n2c(=O)n(-c3ccc(OC)cc3)nnc12	> 79.9	45.7	51.1	35.9		> 67.9	> 100	45.6	> 64	> 100	92.7	
O=c1ccn(C/C=C/c2ccccc2)c(=S)n1C/C=C/c1ccccc1	> 100	> 100	> 100	> 100	> 100	> 100	> 100		> 100	> 100	> 100	
O=C(O)C12C3CCC(C3)C1(C(=O)O)C1CCC2C1 (centres undefined)	> 100	> 100	> 100	> 100	54.9					> 100		
N#Cc1ccc(C2OCC3CC=CCC3CO2)cc1 (centres undefined)	> 100	> 100	> 100	> 100	> 100			> 100	> 100	> 100		
O=C(Nc1ccccc1)OCCN=c1c2ccccc2ccc2ccccc12	90.6	> 100	> 100	80.9			65.9	37	> 100	51.4	43.5	
CN1C(=O)C(=Cc2ccc(Br)cc2)C(=O)N(C)C1=O	> 100	> 100	> 100	> 100		> 100	> 100		> 100	> 100	> 100	
COc1ccc(/C=C2/SC(=Nc3ccccc3)N(NC(=O)Cc3ccccc3)C2=O)cc1		> 100	> 100	> 100		> 100	> 100	> 100	> 100	> 100	> 100	
O=c1cccccc1[O-].O=c1cccccc1[O-].O=c1cccccc1[O-].[Nd+3]	> 100		> 100		74.4			74.9	> 100			19.7
Cc1cc2c(cc1Cl)SC(NNCCO)=NS2(=O)=O	> 100	> 100	> 100	> 100		> 100	> 100	> 100	> 100	> 100	> 100	
N#Cc1c(-c2ccccc2)cn(C(=O)c2ccccc2)c1N		> 100	> 100	> 100	> 100	> 100	> 100		> 100	> 100		
CN1CCS(=O)(=O)NC(Cc2ccccc2)C(=O)N2CCCC2C1=O (centres undefined)	> 100	> 100	> 100	> 100	> 100			> 100	> 100	> 100		
CC(CC(=O)N1C2CC3CCC2(CS1(=O)=O)C3(C)C)[Si](C)(C)C (centres undefined)	> 100	> 100	> 100	> 100	> 100	> 100	> 100	> 100		> 100	> 100	
COC(C)=NCCC1=CCCCC1	> 100	> 100	> 100	> 100	> 100	> 100	> 100		> 100	> 100	> 100	

Structure (SMILES)	TGI (CAKI-1 renal) [µM]	TGI (SF-268 CNS) [µM]	TGI (786-0 renal) [µM]	TGI (SNB-75 CNS) [µM]	TGI (NCI-H522 lung) [µM]	TGI (MCF7 breast) [µM]	TGI (NCI/ADR-RES ovarian) [µM]	TGI (SF-539 CNS) [µM]	TGI (OVCAR-4 ovarian) [µM]	TGI (COLO 205 colon) [µM]	TGI (T-47D breast) [µM]	GI50 (SF-539 CNS) [µM]
c1ccc2cc(C3NCCc4[nH]cnc43)ccc2c1 (centres undefined)	> 100	> 100	> 100	> 100	> 100			> 100	> 100	62.5		
O=[N+]([O-])C(C(Cl)=C(Cl)Cl)=C(N1CCCCC1)N1CCCCC1	> 100	> 100	> 100	> 100		> 100	> 100	> 100	> 100	> 100	> 100	
c1ccc2c(c1)nc1ccccn12		> 100	> 100	> 100		> 100	> 100	> 100		> 100	> 100	
O=C1CSC(c2ccccc2)N1c1ccc(-c2ccc(-n3c(-c4ccccc4)nc4ccccc4c3=O)cc2)cc1 (centres undefined)	> 100	> 100	> 100		> 100	> 100	> 100		> 100	> 100	> 100	
O=C1C(Cl)C(c2ccc(O)cc2)N1n1cnc2ccccc2c1=O (centres undefined)	> 60.3	> 100	> 100	> 100	32.6			> 100	> 94	58.4		
N#CCCC(C#N)(C#N)CCC#N		> 100	> 100		> 100			> 100		> 100		
CN1N=C(c2ccncc2)OC1c1cccc(F)c1 (centres undefined)		> 100	> 100	> 100	> 100	> 100	> 100	> 100	> 100	> 100	> 100	
Cc1ccccc1N(CCC#N)C1=NN(C(=O)CC(=O)Nc2ccc(Cl)cc2)C(c2ccccc2)C1 (centres undefined)		> 100	> 100	> 100	> 100			> 100	> 100	> 100		
Cc1cc(-c2nc3cc(F)ccc3s2)ccc1N	> 94	> 90.5	> 79.4	> 79.1	> 100	2.72	> 100	46.1		> 67.3	> 100	
CN(C)c1n2c3ccc([N+](=O)[O-])cc3n3c(N(C)C)[n+]4ccccc4c3c2c2cccc[n+]12	> 100	> 100	> 100	> 100	> 100	> 100	> 100		> 100	> 100	> 100	
Cc1n[nH]c(=O)n1/N=C/c1ccco1	> 100	> 100	> 100	> 100		> 100	> 100	> 100	> 100	> 100	> 100	
CCOC(=O)c1ccc(N=C2Sc3nc4ccccc4n3C2=Nc2ccc(C(=O)OCC)cc2)cc1	70.6	84.3	24.5		> 100	31.3	72.7	41.6	81.5	> 100	> 100	
COc1ccc2nc3ccc(OC)cc3c(S(=O)Cc3ccccc3)c2c1 (centres undefined)	25.6	40.2	4.78	28.8	2.63		46.7	27.2	30.2	25.9	4.87	
COc1cc2ccnc(C#N)c2cc1OCc1ccccc1	> 100	> 100	> 100	66.3	> 100			> 100	> 100			
Cc1cc(NS(=O)(=O)c2ccc(NO)cc2)no1	> 100	> 100	> 100	> 100		47.1	> 100	> 100	> 100	> 100		
COc1cc(-c2nc(N)c(C#N)c3c2CCS(=O)(=O)c2ccc(C)cc2-3)cc(OC)c1OC	> 100	> 100	> 100	75.9	> 100		> 100		> 100	> 100	> 100	
c1cc2c(cc1C1OCC3C(c4ccc5c(c4)OCO5)OCC13)OCO2 (centres undefined)		> 100	> 100	> 100	> 100			> 100	> 100	> 100		
CN1CCCS/C1=C1/SC(=S)N(c2ccccc2)C1=O	> 100	> 100	> 100	> 100	> 100			> 100	> 100	> 100		
COc1ccc(S(=O)(=O)N/N=C(\C)CN2C(=O)c3ccccc3C2=O)cc1OC	> 100	> 100	> 100	> 100	> 100			> 100	> 100	> 100		
CN(C)CC1(Cc2ccccc2)CC/C(=C\c2ccccc2)C1=O (centres undefined)	> 100	> 100	> 100	> 100	30.1			60.3	> 100	89.6		
O=C1CCC(=O)c2ccccc2N1	> 100	> 100	> 100	> 100	> 100			> 100	> 100	> 100		
COc1cc(C2C(C(=O)NCc3ccccc3)=C(C)NC(C)=C2C(=O)NCc2ccccc2)ccc1O	75.1	> 100	> 100	> 100				41	> 100			
COc1cc2c(cc1NC(=O)c1ccccc1)c1c(n2S(=O)(=O)c2ccccc2)CCN(S(=O)(=O)c2ccccc2)C1		> 100	> 100	> 100			> 100		> 100	> 100	> 100	
CC1=CC2(C)C=C[C@@H]1C(=O)[C@@]1(C)CC[C@@](O)(C(C)C)[C@H]1CC2		57.1	33.3	58.3		76	40	35	38.2	40.2	88	
